Laboratory results published in patent publication US20260224521A1, “BIOMOLECULE FOR TREATMENT OF CORNEAL PATHOLOGIES” (Board of Supervisors of Louisiana State University and …, priority 2019, published 2026).

Key:
[1] = mouse model of tibia bone fracture (96); cited from earlier work
[2] = tested on: mouse cornea; conditions: topical eye drops, 3× daily for 96 hours; 2005 (76); cited from earlier work
[3] = Incorporation of DHA into PC and PE after topical DHA to corneas with damaged stromal nerves; assay type: in vivo; conditions: 1 h, injured mouse corneas
Protocol: Proportion of PC and PE containing oleic acid (18:1) in the sn-1 and DHA in the sn-2 position. PE was more enriched in the DHA than PC. […] Corneal lipid profiles were analyzed by mass spectrometry-based lipidomic analysis.

[4] = tested on: rabbit cornea; conditions: cited from earlier work
[5] = tested on: injured corneas; conditions: NPD1 added to injured corneas (27); cited from earlier work
[6] = tested on: mouse cornea; conditions: subconjunctival injection every 48 hours, 14 days; 2009 (77); cited from earlier work
[7] = tested on: corneal nerves; conditions: daily i.p. injections of 1 ng/g body weight for 8 weeks; 2017 (79); cited from earlier work
[8] = tested on: mouse cornea; assay: Corneal sensitivity measurement (Belmonte non-contact aesthesiometer); assay type: in vivo; conditions: day 9 after injury and treatment; vs vehicle
Protocol: Corneal sensitivity was evaluated at days 3, 6, 9 and 12 after corneal injury and treatment (FIG. 4). A new methodology to measure the sensation in mouse cornea was introduced using the Belmonte non-contact aesthesiometer. […] It is important to note that this range of normal corneal sensitivity is critical to evaluate corneal sensation since the Belmonte non-contact aesthesiometer working flow rate is from 20 to 200 ml/min. The range of normal corneal sensitivity from […] in the mouse was regarded as successful recovery after injury and treatment, and it was used to normalize the measurements.
(§1) Mice were anesthetized with a mix of ketamine (200 mg/kg) and xylazine (10 mg/kg) injected intraperitoneally, and one drop of proparacaine hydrochloride solution (0.5%) was applied to the right eye subjected to injury. As previously described (19, 29), the center of the cornea was demarcated with a 2 mm trephine, and the epithelium and the anterior stroma were gently removed under a surgical microscope using a corneal rust ring remover (Algerbrush II; Alger Equipment Co., Lago Vista, TX, USA). One drop of 0.3% of tobramycin ophthalmic solution (Henry Schein, Melville, NY, USA) was applied to the eye to prevent postoperative infection. The same investigator (J.H.) performed all surgeries. Afterward, 10 μl of PEDF (50 ng/ml) plus DHA (50 nM) or DHA-derived lipid mediators were applied topically, as explained in each experimental design.
The non-contact corneal aesthesiometer has been described as a more reliable method than the standard Cochet-Bonnet aesthesiometer to determine the corneal sensation threshold (54). Therefore, for corneal sensation measurement, the Belmonte non-contact corneal aesthesiometer (55) was used with some modification. Briefly, one researcher held the mouse and kept the air output needle at a distance of 3 mm from the cornea. Another researcher controlled the air flow rate. The measurements started at an air flow rate of 80 ml per minute and then increased gradually by ten units until the mouse started blinking. When the mouse blinked, the air flow rate was recorded as the final corneal sensitivity index.

[9] = tested on: corneal nerves; assay: Corneal nerve analysis (PGP9.5 and SP whole-mount nerve density); assay type: in vivo, mouse
Source text: PEDF+DHA stimulates corneal nerve regeneration in injury animal models (20-25). It was important to confirm the biological activity of RvD6si as a lipid mediator underlying the action of PEDF+DHA. To validate this, mice were injured and treated (as described in FIG. 4). Isolated corneas were stained with PGP 9.5, a pan-neuronal marker, and with SP neuropeptide antibodies. The density of non-injured corneal nerves positive to PGP 9.5 and SP, respectively, was used to normalize the values (FIG. 5). Substance P is a main neuropeptide in mammalian corneas (26-28).
as §1
Twelve days after injury and treatment, mice were euthanized, and the eyes enucleated and fixed with Zamboni's fixative (American Master Tech Scientific, Lodi, CA, USA) for 45 min at room temperature. The corneas were then excised and fixed for an additional 15 min, followed by 3 washes with PBS. To block nonspecific binding, corneas were incubated with 10% normal goat serum plus 0.5% Triton X-100 in PBS for 1 h at room temperature. Afterward, corneas were incubated with the primary antibodies, rabbit monoclonal anti-PGP9.5 (1:500), (ab108986; Abcam, Cambridge, MA, USA), and rat monoclonal anti-substance-P (SP; 1:100) (sc-21715; Santa Cruz Biotechnology, Dallas, TX, USA) for 24 h at room temperature with constant shaking. After being washed with PBS, the corneas were incubated with the corresponding secondary antibodies goat anti-rabbit Alexa-Fluor 488 (1:1000) and goat anti-rat Alexa-Fluor 488 (1:1000) (Thermo Fisher Scientific, Waltham, MA, USA) for 24 h at 4° C. Four radial cuts were performed on each cornea that was flatly mounted on a slide with the endothelium side up and examined with a fluorescent microscope (Deconvolution microscope DP80; Olympus, Tokyo, Japan). The images were merged together to build the entire view of the corneal nerve network. The corneal nerve density was measured using Photoshop CC 2014 (Adobe) as previously described (26, 29).

[10] = tested on: trigeminal ganglion (TG) gene expression; assay: Trigeminal ganglion RNA sequencing after corneal injury and treatment; assay type: in vivo, mouse; conditions: RNA-seq, 12 days after corneal injury and topical treatment; vs vehicle
Protocol: Because corneal sensory nerves originate in TG neurons, we wanted to validate whether corneal injury could be sensed in the TG and t, in turn, would elicit a gene expression response. Thus, TG were harvested 12 days after injury and treatment with RvD6si or RvD6 or vehicle treatment used as control (FIG. 4) and then RNA-seq analysis was performed. […] The box plots depict two activated genes by RvD6si in this class: C9orf72 and Gpm6a (FIG. 6). We also detected specific genes related to neuropeptides and ion channel receptors in the cornea that are stimulated by the addition of PEDF+DHA (19, 21, 24) (FIG. 6D). The RNA-seq established that RvD6 or RvD6si reduced gene expression of two major neuropeptides, tachykinin precursor 1 (Tac1) that encodes Substance P (SP) and calcitonin-related polypeptide beta (Calcb). It is important to note that these neuropeptides, especially Calcb, are major pain-induced mediators in migraine and other primary headaches (30).
TG corresponding to the injury eye side (n=5) were harvested and kept in RNAlater solution (Thermo Fisher Scientific) until homogenized on ice using a Dounce homogenizer. Total mRNA was extracted using an RNeasy mini kit (Qiagen, Germantown, MD, USA) as described by the manufacturer. Purity and concentration of RNA were determined with a NanoDrop ND-1000 spectrophotometer (Thermo Fisher Scientific), and the samples were stored at −80° C. until used. RNA sequencing was performed using the adapted Smart-seq2 protocol (56). Briefly, one ng of total RNA was reverse transcribed with the Oligo-dT30VN and template-switching oligo (TSO) primers. The total cDNAs were amplified using ISPCR primer, and the library was made using the Nextera XT DNA library preparation kit (Illumina, San Diego, CA, USA). The libraries were pooled using the same molarity and sequenced using the NextSeq 500/550 High Output Kit v2 (75 cycles, Illumina). After demultiplexing, RNA-seq data were aligned to the GENCODE GRCm38 mouse primary genome assembly (Release M22, gencodegenes.org/mouse/) using the RSubread package v1.34.6 for R v3.6.1 (57). The outputted BAM files for sequencing data alignment were counted using featureCounts function (Subread v1.6.5 in Ubuntu LTS 16.4 operating system) (58). Next, the raw count data were subjected to differential gene expression analysis using DESeq2 package for R (59). The adjusted p-values were regarded as the false discover rate (FDR).

[11] = tested on: mouse cornea; assay: Corneal wound healing 20 h after injury (methylene blue stained wounded area); assay type: in vivo; conditions: 20 h after injury and topical treatment; compared to vehicle
Protocol: Studies have shown that PEDF+DHA promotes corneal wound healing in rabbit (20, 21), and in normal and diabetic mice (24, 25) after experimental surgery. We validated the ability of RvD6s (either RvD6 or RvD6si) in stimulating corneal wound healing. The right mouse eyes were injured, and the animals were divided into four groups: vehicle, PEDF+DHA, RvD6, and RvD6si (FIG. 4).
as §1
Mice were euthanized 20 h after injury and treatment, and corneas were stained with 0.5% methylene blue for 20 sec and then washed with PBS for 2 min. Photographs were taken with a dissecting microscope (SMZ 1500; Nikon, Tokyo, Japan) through an attached digital camera (DXM 1200; Nikon). The images corresponding to the wounded area were quantified using Photoshop CC 2014 software (Adobe, San Jose, CA, USA).

[12] = tested on: retinal pigment epithelial (RPE) cells; conditions: RPE cells (16); cited from earlier work

CC/C=C\C[C@H](O)/C=C\C=C\C/C=C/C=C/C=C/C(O)[C@@H](O)CCC(=O)O (stereo in doubt) [RvD4, Resolvin D4]
pain [1]: no effect

CC/C=C\C[C@H](O)/C=C/C=C\C/C=C\C/C=C\C/C=C\CCC(=O)O [17S-HDHA]
PMNs in the cornea [2]: Increased | formation of the proinflammatory chemokine KC [2]: Decreased | rate of re-epithelialization [2]: Increased the rate of re-epithelialization

CC/C=C\C/C=C\C/C=C\C/C=C\C/C=C\C/C=C\CCC(=O)O [DHA, docosahexaenoic acid]
incorporation of the fatty acid in PC and PE molecular species containing 18:1-DHA [3]: rapid incorporation

CC/C=C\C[C@H](O)\C=C/C=C/C=C/[C@H](O)C/C=C\C/C=C\CCC(=O)O [NPD1, neuroprotectin D1]
neutrophil infiltration ([4]; after 2 and 4 days of treatment, 2013 (41)): Decreased neutrophil infiltration after 2 and 4 | subepithelial corneal nerves and tear secretion ([4]; topical eye drops 33 ng/eye, 3× daily for 6 weeks, 2013 (41)): Increased subepithelial corneal nerves and tear | gene expression and protein levels of NGF, BDNF and Sema7A [5]: increase | PMNs in the cornea [2]: Increased | formation of the proinflammatory chemokine KC [2]: Decreased | rate of re-epithelialization [2]: Increased the rate of re-epithelialization

CC/C=C\C[C@H](O)/C=C/C=C\C=C\C=C\[C@@H](O)[C@@H](O)C/C=C\CCC(=O)O [RvD1, Resolvin D1]
mRNA expression levels of TNF-α, IL-1α, IL-1β, VEGF-A, VEGF-C, and VEGFR2 [6]: macrophages and reduced mRNA expression | suture-induced or IL-1β-induced hemangiogenesis (HA) [6]: Suppressed suture-induced or IL-1β-induced | diabetes-induced corneal nerve lost [7]: Reduced the diabetes-induced comeal nerve | pain [1]: pain attenuation

CC/C=C\C[C@H](O)/C=C/C=C\C=C\C=C\[C@@H](O)[C@@H](O)C/C=C\CCC(=O)OC [RvD1-methyl ester]
diabetes-induced corneal nerve lost [7]: Reduced the diabetes-induced comeal nerve

CC/C=C\C[C@H](O)[C@H](O)/C=C/C=C/C=C\C=C\[C@@H](O)C/C=C\CCC(=O)OC [RvD2-methyl ester]
diabetes-induced corneal nerve lost [7]: Reduced the diabetes-induced comeal nerve

CC/C=C\C[C@H](O)/C=C/C=C\C[C@@H](O)/C=C/C=C/C=C\[C@@H](O)CCC(=O)O [RvD3, Resolvin D3]
pain [1]: no effect

CC/C=C\C[C@H](O)/C=C/C=C\C/C=C\C=C\[C@@H](O)C/C=C\CCC(=O)O [RvD5, Resolvin D5]
pain [1]: pain attenuation

CC/C=C\C[C@H](O)/C=C/C=C\C/C=C\C/C=C\C=C\[C@@H](O)CCC(=O)O [RvD6, 4S,17S-dihydroxy-5E,7Z,10Z,13Z,15E,19Z-docosahexaenoic acid, reference compound]
corneal sensitivity [8]: higher | total corneal nerve density, differences between RvD6si, RvD6, and PEDF+DHA ([9]; 12 days after injury and treatment): no significant differences | total corneal nerve density (PGP 9.5) ([9]; 12 days after injury and treatment, % of the normal (uninjured) cornea): 59.7±11.2% | density of SP-positive nerves ([9]; 12 days after injury, compared to the vehicle-treated group): higher | Calcb gene expression in TG [10]: reduced | Tac1 gene expression in TG [10]: reduced | corneal wound healing (wound closure) [11]: faster

B1: PEDF: pigment epithelium-derived factor, a broad-acting neurotrophic and neuroprotective factor (protein, UniProt P36955 20-418, looked up)
Pigment epithelium-derived …: QNPASPPEEGSPDPDSTGALVEEEDPFFKVPVNKLAAAVSNFGYDLYRVRSSTSPTTNVLLSPLSVATALSALSLGAEQRTESIIHRALYYDLISSPDIHGTYKELLDTVTAPQKNLKSASRIVFEKKLRIKSSFVAPLEKSYGTRPRVLTGNPRLDLQEINNWVQAQMKGKLARSTKEIPDEISILLLGVAHFKGQWVTKFDSRKTSLEDFYLDEERTVRVPMMSDPKAVLRYGLDSDLSCKIAQLPLTGSMSIIFFLPLKVTQNLTLIEESLTSEFIHDIDRELKTVQAVLTVPKLKLSYEGEVTKSLQEMKLQSLFDSPDFSKITGKPIKLTQVEHRAGFEWNEDGAGTTPSPGLQPAHLTFPLDYHLNQPFIFVLRDTDTGALLFIGKILDPRGP
cornea nerve regeneration ([4]; treatment with PEDF or DHA alone (19)): no increase | potency in stimulating NPD1 synthesis relative to NGF [12]: 10 times
